# In patent publication US10675273B2, “Benzothiazole amphiphiles” (The Regents of the University of California, priority 2016, dated 2020):
# Assays:
# [1] = tested on: rat primary hippocampal neurons; settings: previously reported study [40]; cited from earlier work
# RasGRF1 = test: Western blot analysis of RasGRF1 expression; format: cell-based, human; settings: differentiated SH-SY5Y cells; for increase in RasGRF1 expression compared to untreated cells: 5 μM, 24 h, normalized to β-tubulin
# Protocol: Western Blot Analysis of Ras-GRF1 Expression in SH-SY5Y Cells Exposed to BAMs 1-3 or BTA-EG6. Differentiation of SH-SY5Y cells was performed according to a previously described procedure. Briefly, cells were differentiated for 8 days by the addition of 10 μM all-trans-retinoic acid (RA) in the cell culture medium (1:1 EMEM and Ham's F12 supplemented with 10% FBS). Media with RA was changed every 2 days. After 8 days, the media was removed and new, RA-free media containing the sample solutions was added. Cells were exposed to solutions containing a final concentration of the BTA-E6 and BAMs (0, 1, or 5 μM) for 24 hours at 37° C. Cells were than lysed with NP-40 buffer with protease inhibitor (Roche, ref #05892791001) and protein concentration was determined by BCA assay (Pierce BCA Assay Kit, #23225). Proteins were separated by SDS-PAGE (NUPAGE® 4-12% Bis-Tris gel, NUPAGE® MES SDS running buffer) followed by transfer onto nitrocellulose membrane (NOVEX®, LC2000). Membranes were blocked with 3% BSA in Tris-Buffered Saline with Tween 20 (TBST) for 1 h followed by incubation with primary antibodies in 3% BSA/TBST [mouse anti-RasGRF1 (BD 610149) and mouse anti-tubulin-β (Thermo MS1226-P)] overnight at 4° C. with shaking. Membranes were then washed with TBST (3×10 min) and then incubated with a TRITC labeled goat anti-mouse antibody (JAX 115-025-003) for 1 h at RT with shaking. After 1 h, the membranes were washed with TBST (6×5 min) and the proteins were visualized using a Typhoon 8600 variable mode imager (GE Healthcare). The density of each band was then quantified using ImageJ software as a percentage of control following normalization to β-tubulin.
# [2] = tested on: rat primary hippocampal neurons; test: Dendritic spine density and morphology in primary hippocampal neurons; format: cell-based; settings: 24 h exposure, versus vehicle control (0.1% DMSO)
# Protocol: Neuronal Cultures. Rat dissociated hippocampal neurons from postnatal day 1 were plated at a density of 45,000 cells/cm^2 onto poly-D-lysine-coated coverslips. Neurons were maintained in B27 supplemented Neurobasal media (Invitrogen) until days in vitro (DIV) 18-23 as previously described.
# Neuronal Treatments. For all neuronal treatments the following general protocol was followed: Briefly, 18-23 DIV rat dissociated hippocampal neurons were dosed with various concentrations (0-50 μM final concentration) of BAMs 1-3 or BTA-EGx (with 0.1% final DMSO concentration) for various times (24-72 h depending on the experiment). After dosing and at the desired time point, the media was removed and cells were rinsed with PBS-MC (phosphate-buffered saline, 1 mM MgCl2 and 0.1 mM CaCl2). Following rinsing, cells were fixed with 4% paraformaldehyde (PFA)/sucrose in PBS for 10 min at RT. […]
# Confocal Microscopy and Dendritic Spine Analysis. […] Imaged dendrites were straightened using ImageJ, and spine density was the number of manually counted spines divided by dendrite segment length. The analyzer was blind to treatment and statistical significance was determined between experimental conditions by either unpaired t tests (two groups) or by ANOVA and indicated post hoc multiple-comparison test (>2 experimental conditions).
# [3] = previously reported [18,19], cited from earlier work
# [4] = tested on: human iPSC-derived neurons; test: Spine density of PSD95 puncta in 3-month differentiated NSC; format: cell-based; settings: 5 μM, control DMSO (0.1%)
# Protocol: FIG. 10. Quantification of spine density of PSD95 puncta from 3-month differentiated NSC treated with compound or vehicle control The figure depicts neuron micrographs with staining for MAP2, PSD95 and composite under control and compound administration conditions. “Compound” refers to BAM3-EG6 (5 μM), as depicted in FIG. 1. “Control” refers to DMSO (0.1%). MAP2 is a marker for dendrites, and PSD95 is a marker for post-synaptic features. A histogram (below) depicts normalized PSD95 puncta under control and compound administration conditions. It is observed that […] increases spine density by about 50% compared to control in human iPSC-derived neurons.
# FIG. 10 depicts quantification of spine density of PSD95 puncta from 3-month differentiated NSC treated with compound or vehicle control. It is observed that BTA-EG4 analog (e.g., those depicted in FIG. 1) increases spine density by about 50% compared to control in human iPSC-derived neurons.
# [5] = Fluorescence emission spectra in water, octanol and aqueous liposome suspension (membrane partitioning); format: physicochemical; settings: 50 μM compound, DiPhyPC liposomes
# Protocol: Measurement of Fluorescence Emission Spectra. The emission spectra of benzothiazoles in different environments was evaluated as previously described. Briefly, BAMs 1-3 and BTA-EG6 were diluted to a final concentration of 50 μM in deionized H2O, pure octanol, and a liposome suspension. The liposomes were prepared from a total lipid concentration of 10 mM of DiPhyPC in water by the gentle dehydration rehydration method followed by tip sonication. 200 μL of each sample was transferred to a cuvette (Hellma® Analytics, Quartz […]® (QS), 10 mm) and the fluorescence emission spectrum was measured in a PTI spectrofluorometer (0.5 nm step size) in water, octanol and an aqueous liposome suspension for BAMs 1-3 and BTA-EG6. Maximal excitation and emission values (λmax) for all compounds were as follows: BTA-EG6 (Ex/Em 355/420 nm), BAM1-EG6 (Ex/Em 355/420 nm), BAM2-EG6, (Ex/Em 365/428 nm), and BAM3-EG6 (Ex/Em 335/398 nm). Each experiment was repeated at least three separate times and error bars denote standard deviation from the mean. Data was processed using ORIGIN® 7.0 (MicroCal Software, Inc., Northampton, Mass.).
# [6] = tested on: rat primary hippocampal neurons; test: Rescue of Aβ-induced spine loss; format: cell-based; settings: 1 μM Aβ (1-42) plus 1 or 5 μM compound, 3 days
# [7] = tested on: SH-SY5Y human neuroblastoma cells; test: MTT cell viability assay; format: cell-based; settings: 24 h exposure, read-out: IC50 of toxicity
# Protocol: Measurement of Cell Viability in the Presence of BAMs 1-3 and BTA-EG6. An MTT cell viability assay was performed as previously described. Briefly, SH-SY5Y cells were plated in a 96 well plate at a density of 50,000 cells/well in 100 μL of 1:1 Eagle's Minimum Essential Medium (EMEM) and Ham's F12, supplemented with 10% Fetal Bovine Serum (FBS). Cells were allowed to adhere overnight (37° C., 5% CO2) before dosing with 100 μL of various samples solutions of either BTA-EG6 or BAMs 1-3 with final concentrations (0-250 Cells were exposed to these solutions for 24 h at 37° C., 5% CO2. An MTT cell viability kit (ATCC, Product No: 30-1010K) was then used to determine cell viability. Briefly, 20 μL of the provided MTT reagent was added per well and cells were placed in the incubator for 3 h. The insoluble intracellular purple formazan was then dissolved by the addition of 100 μL of detergent reagent provided and let solubilize overnight at room temperature. The cell viability was determined by measuring the absorbance at 570 nm using a SPECTRAMAX® 190 microplate reader (Molecular Devices). All results are presented as percent reduction of MTT relative to untreated cells (100% viability), and all wells were blanked with absorbance values from the wells containing media, MTT reagent and detergent only.
smiles,measurement,setting,value
C[C@]12CC[C@@H]3c4ccc(O)cc4CC[C@H]3[C@@H]1CC[C@@H]2O [17β-estradiol],time required to induce maximal increase in spine density,[1],96 h
"OCCOCCOCCOCCOCCOCCSc1ccc(-c2nc3ccccc3s2)cc1 [BAM3-EG6, 17-((4-(benzo[d]thiazol-2-yl)phenyl)thio)-3,6,9,12,15-pentaoxaheptadecan-1-ol]",increase in RasGRF1 expression compared to untreated cells,RasGRF1,70%
Cc1ccc2nc(-c3ccc(NCCOCCOCCOCCO)cc3)sc2c1 [BTA-EG4],effect on dendritic spine density (in words),[2],observed increase in dendritic spine density over the vehicle control
same,increase in RasGRF1 expression compared to untreated cells,RasGRF1,20%
same,effect on RasGRF1 expression levels (in words),RasGRF1; 1 or 5 μM / increasing concentrations,dose-dependent increase in RasGRF1 levels
same,dendritic spine density in vivo,[3]; mice,phenotypic increase in dendritic spine density
same,memory and learning in cognitive performance tests,[3]; wild-type mice and mouse model for AD,capability to improve memory and learning
same,increase in spine density (PSD95 puncta) compared to control,[4],about 50%
Cc1ccc2nc(-c3ccc(NCCOCCOCCOCCOCCOCCO)cc3)sc2c1 [BTA-EG6],"change of emission max (λmax) in aqueous liposome suspension from water, relative to λmax in pure octanol",[5],50%
same,increase in RasGRF1 expression compared to untreated cells,RasGRF1,approximately 20%
same,net increase in dendritic spine density compared to control,[6],~20%
same,spine density higher than in cells treated with Aβ (1-42) alone,[6],~50%
same,IC50,[7],90 µM
